Test results as given in US20060257411A1 (priority 2005, published 2006).
Where two headings read alike, the source gives them in different places.

Tests used:
peritoneal macrophages = format: cell-based, mouse
[1] = tested on: MyD88-independent pathway (TRIF-TRAM, IRF-3) in peritoneal macrophages; format: cell-based, mouse
[2] = tested on: vesicular stomatitis virus (VSV); format: cell-based; settings: Heedless or Tlr4 Lps-d/Lps-d macrophages treated with interferon before infection (4 h)
[3] = macrophages from homozygous Heedless mice compared with wild-type, 4 h incubation

Pam3CSK4
TNF production in response to inducer (peritoneal macrophages; [3]): normal

MALP-2
TNF production in response to inducer (peritoneal macrophages): partial impairment

Pam2CSK4
TNF production in response to inducer (peritoneal macrophages; [3]): partial impairment

lipid A
formation of the IRF-3 phosphodimer [1]: not detected | signaling via the MyD88-independent pathway (type I IFN production) [1]: prevented | TNF production in response to lipid A (peritoneal macrophages): perfectly able to produce TNF

poly IC
TNF production in response to inducer (peritoneal macrophages; [3]): normal

lipoteichoic acid
TNF production in response to inducer (peritoneal macrophages): partial impairment

B1: type I interferon: recombinant murine IFN-β from R&D systems used to pretreat macrophages (protein, UniProt P01575 22-182, looked up)
Interferon beta: INYKQLQLQERTNIRKCQELLEQLNGKINLTYRADFKIPMEMTEKMQKSYTAFAIQEMLQNVFLVFRNNFSSTGWNETIVVRLLDELHQQTVFLKTVLEEKQEERLTWEMSSTALHLKSYYWRVQRYLKLMKYNSYAWMVVRAEIFRNFLIIRRLTRNFQN
lytic effect of VSV on macrophages [2]: prevented
